For experiment [1], the target named is T1, myeloperoxidase (Homo sapiens, UniProt P05164).
T1 sequence (P05164 49-745): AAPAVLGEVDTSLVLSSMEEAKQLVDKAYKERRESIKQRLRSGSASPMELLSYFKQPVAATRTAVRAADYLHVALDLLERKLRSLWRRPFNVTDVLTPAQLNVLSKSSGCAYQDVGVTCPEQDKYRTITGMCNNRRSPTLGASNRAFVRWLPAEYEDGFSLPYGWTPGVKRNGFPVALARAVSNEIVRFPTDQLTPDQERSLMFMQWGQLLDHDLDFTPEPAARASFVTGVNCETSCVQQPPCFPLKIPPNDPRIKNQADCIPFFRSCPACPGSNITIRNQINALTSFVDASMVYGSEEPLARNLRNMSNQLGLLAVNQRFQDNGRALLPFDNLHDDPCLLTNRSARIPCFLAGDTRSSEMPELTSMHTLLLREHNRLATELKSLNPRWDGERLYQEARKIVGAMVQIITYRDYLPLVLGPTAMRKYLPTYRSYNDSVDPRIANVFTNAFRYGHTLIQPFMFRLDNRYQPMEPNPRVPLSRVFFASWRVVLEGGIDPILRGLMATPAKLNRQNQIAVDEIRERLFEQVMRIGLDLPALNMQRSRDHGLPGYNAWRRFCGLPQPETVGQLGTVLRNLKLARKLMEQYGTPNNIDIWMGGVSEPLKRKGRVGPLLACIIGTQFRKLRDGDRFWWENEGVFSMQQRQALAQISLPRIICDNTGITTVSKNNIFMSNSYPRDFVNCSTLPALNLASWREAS
Kind of experiment: MPO Peroxidation Assay (Amplex Red Assay). In kind it is biochemical. As to conditions: potency range class.

For experiment [2], the target named is T1, myeloperoxidase. Kind of experiment: MPO Chlorination Assay (APF Assay). In kind it is biochemical. As to conditions: potency range class.
Setting [3] is: read-out: Amplex Red Assay IC50 value.

Take `CC(C)(CNCCC(c1ccccc1)c1cc(N)nc2[nH]nnc12)c1ccccc1` (stereo not shown) [Example 104, 7-{3-[(2-methyl-2-phenylpropyl)amino]-1-phenylpropyl}-3H-[1,2,3]triazolo[4,5-b] pyridin-5-amine]: the IC50 on myeloperoxidase [1] (setting [3]) and at myeloperoxidase [2] (read-out: APF Assay IC50 value) was 0.101 to 0.999 µM throughout.
Consider `Nc1cc(C(CCNC2CCC(c3cccc(Cl)c3)CC2)c2ccccc2)c2nn[nH]c2n1` (stereo not shown) [Example 105, 7-(3-{[4-(3-chlorophenyl)cyclohexyl]amino}-1-phenylpropyl)-3H-[1,2,3]triazolo[4,5-b]pyridin-5-amine], for which the figures for the IC50 at myeloperoxidase [1] (setting [3]) and at myeloperoxidase [2] (read-out: APF Assay IC50 value) were 1 to 10 µM and 0.001 to 0.1 µM, respectively.
Taken in the same sequence, the figures for `Nc1cc(C(CCNCCCc2ccccc2)c2ccccc2)c2nn[nH]c2n1` (stereo not shown) [Example 106, 7-{1-phenyl-3-[(3-phenylpropyl)amino]propyl}-3H-[1,2,3] triazolo[4,5-b] pyridin-5-amine] were 0.101 to 0.999 µM and 0.101 to 0.999 µM.
Taken in the same sequence, the figures for `Nc1cc(C(CCN[C@H]2CC[C@@H](c3ccc(Cl)cc3)CC2)c2ccccc2)c2nn[nH]c2n1` (stereo partly shown) [Example 107, 7-(1-phenyl-3-{[(1s,4s)-4-(4-chlorophenyl)cyclohexyl]amino}propyl)-3H-[1,2,3] triazolo[4,5-b] pyridin-5-amine] were 0.101 to 0.999 µM and 0.001 to 0.1 µM.
As to `Nc1cc(C(CCN[C@H]2CC[C@H](c3ccc(Cl)cc3)CC2)c2ccccc2)c2nn[nH]c2n1` (stereo partly drawn) [Example 108, 7-(1-phenyl-3-{[(trans)-4-(4-chlorophenyl)cyclohexyl]amino}propyl)-3H-[1,2,3] triazolo[4,5-b] pyridin-5-amine], the 50% inhibitory concentration (IC50) was 0.101 to 0.999 µM at myeloperoxidase [1] (setting [3]) and 0.001 to 0.1 µM at myeloperoxidase [2] (read-out: APF Assay IC50 value).
Taken in the same sequence, the figures for `Nc1cc(C(CCNCCc2ccccc2)c2ccccc2)c2nn[nH]c2n1` (stereo not shown) [Example 109, 7-{1-phenyl-3-[(2-phenylethyl)amino]propyl}-3H-[1,2,3] triazolo[4,5-b] pyridin-5-amine] were 0.101 to 0.999 µM and 0.101 to 0.999 µM.
Taken in the same sequence, the figures for `CC1(NCCC(c2ccccc2)c2cc(N)nc3[nH]nnc23)CCc2ccccc21` (stereo not shown) [Example 110, 7-{3-[(1-methyl-2,3-dihydro-1H-inden-1-yl)amino]-1-phenylpropyl}-3H-[1,2,3]triazolo[4,5-b]pyridin-5-amine] were 0.101 to 0.999 µM and 0.101 to 0.999 µM.
As to `Nc1cc(C(CCNC2CCC(c3ccc(F)cc3)CC2)c2ccccc2)c2nn[nH]c2n1` (stereo not shown) [Example 112, 7-(3-{[4-(4-fluorophenyl)cyclohexyl]amino}-1-phenylpropyl)-3H-[1,2,3]triazolo [4,5-b]pyridin-5-amine], the IC50 at myeloperoxidase [1] (setting [3]) and at myeloperoxidase [2] (read-out: APF Assay IC50 value) was 0.101 to 0.999 µM each time.
Consider `Nc1cc(C(CCNC2(CO)CCC(c3ccccc3)CC2)c2ccccc2)c2nn[nH]c2n1` (stereo not shown) [Example 116, {1-[(3-{5-amino-3H-[1,2,3]triazolo[4,5-b]pyridin-7-yl}-3-phenylpropyl)amino]-4-phenylcyclohexyl} methanol], for which the IC50 was in the range of 0.101 to 0.999 µM on myeloperoxidase [1] (setting [3]) and 0.001 to 0.1 µM at myeloperoxidase [2] (read-out: APF Assay IC50 value).
Taken in the same sequence, the figures for `NC(=O)c1ccc(C2CCC(NCCC(c3ccccc3)c3cc(N)nc4[nH]nnc34)CC2)cc1` (stereo not shown) [Example 117, 4-{4-[(3-{5-amino-3H-[1,2,3]triazolo [4,5-b]pyridin-7-yl}-3-phenylpropyl)amino]cyclohexyl} benzamide] were 0.101 to 0.999 µM and 0.001 to 0.1 µM.
Taken in the same sequence, the figures for `NC(=O)c1ccc(C2CCC(NCCC(c3ccccc3)c3cc(N)nc4[nH]nnc34)CC2)cc1` (stereo not shown) [Example 118, 4-{4-[(3-{5-amino-3H-[1,2,3]triazolo [4,5-b]pyridin-7-yl}-3-phenylpropyl)amino]cyclohexyl} benzamide] were 0.101 to 0.999 µM and 0.101 to 0.999 µM.
Taken in the same sequence, the figures for `CC(C)(Cc1ccccc1)NCCC(c1ccccc1)c1cc(N)nc2[nH]nnc12` (stereo not shown) [Example 119, 7-{3-[(2-methyl-1-phenylpropan-2-yl)amino]-1-phenylpropyl}-3H-[1,2,3]triazolo [4,5-b]pyridin-5-amine] were 0.101 to 0.999 µM and 0.001 to 0.1 µM.
Regarding `Nc1cc(C(CCNCC(c2ccccc2)c2ccccc2)c2ccccc2)c2nn[nH]c2n1` (stereo not shown) [Example 120, 7-{3-[(2,2-diphenylethyl)amino]-1-phenylpropyl}-3H-[1,2,3]triazolo[4,5-b]pyridin-5-amine], the IC50 on myeloperoxidase [1] (setting [3]) lay within 1 to 10 µM; at myeloperoxidase [2] (read-out: APF Assay IC50 value), 0.001 to 0.1 µM.
For `COc1ccc2c(c1)CC[C@H]2NCCC(c1ccccc1)c1cc(N)nc2[nH]nnc12` (stereo partly drawn) [Example 121, 7-(3-{[(1R)-5-methoxy-2,3-dihydro-1H-inden-1-yl]amino}-1-phenylpropyl)-3H-[1,2,3]triazolo[4,5-b]pyridin-5-amine], the IC50 on myeloperoxidase [1] (setting [3]) and at myeloperoxidase [2] (read-out: APF Assay IC50 value) was 0.101 to 0.999 µM throughout.
With `Nc1cc(C(CCN[C@@H]2CCc3c(Cl)cc(Cl)cc32)c2ccccc2)c2nn[nH]c2n1` (stereo partly drawn) [Example 123, 7-(3-{[(1R)-4,6-dichloro-2,3-dihydro-1H-inden-1-yl]amino}-1-phenylpropyl)-3H-[1,2,3]triazolo[4,5-b]pyridin-5-amine], the IC50 on myeloperoxidase [1] (setting [3]) and at myeloperoxidase [2] (read-out: APF Assay IC50 value) was 0.101 to 0.999 µM throughout.
As to `Nc1cc(C(CCN[C@@H]2CCc3ccc(C(F)(F)F)cc32)c2ccccc2)c2nn[nH]c2n1` (stereo partly drawn) [Example 124, 7-(1-phenyl-3-{[(1R)-6-(trifluoromethyl)-2,3-dihydro-1H-inden-1-yl]amino}propyl)-3H-[1,2,3] triazolo[4,5-b] pyridin-5-amine], the IC50 on myeloperoxidase [1] (setting [3]) lay in the range of 1 to 10 µM; at myeloperoxidase [2] (read-out: APF Assay IC50 value) it was 0.101 to 0.999 µM.
Taken in the same sequence, the figures for `Nc1cc(C(CCNC2CCC(c3ccc(F)cc3)CC2)c2ccccc2)c2nn[nH]c2n1` (stereo not shown) [Example 125, 7-(3-{[4-(4-fluorophenyl)cyclohexyl]amino}-1-phenylpropyl)-3H-[1,2,3]triazolo[4,5-b]pyridin-5-amine] were 0.101 to 0.999 µM and 0.001 to 0.1 µM.
Taken in the same sequence, the figures for `Nc1cc(C(CCNC2CCC(Cc3ccccc3)(c3ccccc3)CC2)c2ccccc2)c2nn[nH]c2n1` (stereo not shown) [Example 126, 7-{3-[(4-benzyl-4-phenylcyclohexyl)amino]-1-phenylpropyl}-3H-[1,2,3]triazolo[4,5-b]pyridin-5-amine] were 1 to 10 µM and 0.001 to 0.1 µM.
For `Nc1cc(C(CCNC2CCC(c3ccccc3)(c3ccccc3)CC2)c2ccccc2)c2nn[nH]c2n1` (stereo not shown) [Example 127, 7-{3-[(4,4-diphenylcyclohexyl)amino]-1-phenylpropyl}-3H-[1,2,3]triazolo[4,5-b]pyridin-5-amine], the IC50 on myeloperoxidase [1] (setting [3]) fell in the range of 1 to 10 µM; on myeloperoxidase [2] (read-out: APF Assay IC50 value), 0.001 to 0.1 µM.
`Nc1cc(C(CCNC2(c3ccccc3)CCCCC2)c2ccccc2)c2nn[nH]c2n1` (stereo not shown) [Example 128, 7-{1-phenyl-3-[(1-phenylcyclohexyl)amino]propyl}-3H-[1,2,3]triazolo [4,5-b]pyridin-5-amine]: the IC50 is 1 to 10 µM against myeloperoxidase [1] (Amplex Red Assay IC50 value (μM)) and 0.001 to 0.1 µM against myeloperoxidase [2] (APF Assay IC50 value (μM)).
Consider `Nc1cc(C(CCNC2CCC(Cc3ccccc3)CC2)c2ccccc2)c2nn[nH]c2n1` (stereo not shown) [Example 129, 7-{3-[(4-benzylcyclohexyl)amino]-1-phenylpropyl}-3H-[1,2,3]triazolo[4,5-b]pyridin-5-amine], for which the results for the IC50 on myeloperoxidase [1] (setting [3]) and on myeloperoxidase [2] (read-out: APF Assay IC50 value) were 1 to 10 µM and 0.001 to 0.1 µM, respectively.
Take `CCCCC12CCC(NCCC(c3ccccc3)c3cc(N)nc4[nH]nnc34)(CC1)CC2` (stereo not shown) [Example 130, 7-[3-({4-butylbicyclo [2.2.2]octan-1-yl}amino)-1-phenylpropyl]-3H-[1,2,3]triazolo[4,5-b]pyridin-5-amine]: the figures for the IC50 at myeloperoxidase [1] (setting [3]) and at myeloperoxidase [2] (read-out: APF Assay IC50 value) were 0.101 to 0.999 µM and 0.001 to 0.1 µM, respectively.
As to `Nc1cc(C(CCNC2CCC(c3cccnc3)CC2)c2ccccc2)c2nn[nH]c2n1` (stereo not shown) [Example 132, 7-(1-phenyl-3-{[4-(pyridin-3-yl)cyclohexyl]amino]propyl)-3H-[1,2,3] triazolo[4,5-b] pyridin-5-amine], the IC50 at myeloperoxidase [1] (setting [3]) and on myeloperoxidase [2] (read-out: APF Assay IC50 value) was 1 to 10 µM throughout.
Consider `Nc1cc(C(CCN[C@H]2CC[C@@H](c3ccc(=O)[nH]c3)CC2)c2ccccc2)c2nn[nH]c2n1` (stereo partly drawn) [Example 133, 5-[(cis)-4-[(3-{5-amino-3H-[1,2,3]triazolo[4,5-b]pyridin-7-yl}-3-phenylpropyl)amino]cyclohexyl]-1,2-dihydropyridin-2-one], for which the IC50 on myeloperoxidase [1] (setting [3]) and on myeloperoxidase [2] (read-out: APF Assay IC50 value) was 0.101 to 0.999 µM throughout.
Turning to `Nc1cc(C(CCN[C@H]2CC[C@H](c3ccc(=O)[nH]c3)CC2)c2ccccc2)c2nn[nH]c2n1` (stereo partly drawn) [Example 134, 5-[(trans)-4-[(3-{5-amino-3H-[1,2,3]triazolo[4,5-b]pyridin-7-yl}-3-phenylpropyl)amino]cyclohexyl]-1,2-dihydropyridin-2-one], the IC50 on myeloperoxidase [1] (setting [3]) and on myeloperoxidase [2] (read-out: APF Assay IC50 value) was 0.101 to 0.999 µM each time.
For `COc1ccncc1[C@H]1CC[C@H](NCCC(c2ccccc2)c2cc(N)nc3[nH]nnc23)CC1` (stereo partly drawn) [Example 137, 7-(1-phenyl-3-{[(trans)-4-(4-methoxypyridin-3-yl)cyclohexyl]amino}propyl)-3H-[1,2,3]triazolo [4,5-b]pyridin-5-amine], the figures for the IC50 at myeloperoxidase [1] (setting [3]) and at myeloperoxidase [2] (read-out: APF Assay IC50 value) were 1 to 10 µM and 0.101 to 0.999 µM, respectively.

Usually IC50 stands for the midpoint of a concentration-inhibition curve.

The values are drawn from patent US11008317B2, “Triazolopyridine inhibitors of myeloperoxidase and/or EPX” (priority 2016, dated 2021).
